In BindingDB's records for doi:10.1021/jm960093o (Agouron Pharmaceuticals, 1996) one finds IC50 data, which are given here for four compounds.

This assay deals with T1, Dimer of Gag-Pol polyprotein [489-587] (Human immunodeficiency virus 1, UniProt P12497).
T1 construct: 489-587
The assay can be described thus: Protease Inhibition Assay. To be noted: pH 5.6; 37 °C. The protocol:
Protease activity was measured by continuous chromogenic assay. The chromogenic peptide His-Lys-Ala-Arg-Val-Leu- (p-NO2-Phe)-Glu-Ala-Nleu-Ser (Bachem) was used as a substrate. Reactions were followed by the decrease of absorbance at 300 nm measured by spectrophotometer. Experimental results were analyzed by the nonlinear regression analysis, using a mathematical model for tight binding inhibitors.

As usually defined, the IC50 is the concentration that inhibits the measured activity by half. A low value points to greater potency in that assay. For `CC(C)(C)NC(=O)c1ccccc1NCC(O)Cc1ccc2ccccc2c1C(=O)NC(C)(C)C` (centres undefined) [N-tert-butyl-2-(3-{[2-(tert-butylcarbamoyl)phenyl]amino}-2-hydroxypropyl)naphthalene-1-carboxamide], half-maximal inhibition (IC50) was put at 120 µM.
Next, `CC(C)(C)NC(=O)c1ccccc1CC(O)CSc1ccccc1NC(=O)C(C)(C)C` (centres undefined) [N-tert-butyl-2-(3-{[2-(2,2-dimethylpropanamido)phenyl]sulfanyl}-2-hydroxypropyl)benzamide]: above 200 µM.
`CC(C)N1CCC(CC(O)CCc2ccc3ccccc3c2C(=O)NC(C)(C)C)=C(C(=O)NC(C)(C)C)C1` (centres undefined) [N-tert-butyl-4-{4-[1-(tert-butylcarbamoyl)naphthalen-2-yl]-2-hydroxybutyl}-1-(propan-2-yl)-1,2,5,6-tetrahydropyridine-3-carboxamide] returned an IC50 of 70 µM.
The result for `CC(C)(C)NC(=O)c1ccccc1SCC(O)c1ccccc1C(=O)NC(C)(C)C` (centres undefined) [N-tert-butyl-2-({2-[2-(tert-butylcarbamoyl)phenyl]-2-hydroxyethyl}sulfanyl)benzamide] reads above 200 µM.
